pIC50: −log10 of the molar value.
Target: T1, recombinant full-length USP7 (Homo sapiens, UniProt Q93009)
T1 construct: A 25 μl reaction volume containing recombinant full-length USP7 (62 pM)
Experiment: USP7-mediated ubiquitin-rhodamine cleavage assay
Format: biochemical
Settings: recombinant full-length USP7 62 pM; ubiquitin-rhodamine 100 nM; 30-minute pre-incubation, 1 hour reaction at room temperature; read-out: Potency (USP7 IC50)
Summary of the method: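 Enzyme 62 pM; HEPES pH 7.3/150 mM NaCl/1 mM TCEP/125 μg/ml BSA; 1% DMSO; 30 min cpd preinc RT; Ub-rhodamine 100 nM, 1 h RT, dark; acetic acid stop; fluorescence; IC50 4-param fit.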

T1 sequence (Q93009 whole entry): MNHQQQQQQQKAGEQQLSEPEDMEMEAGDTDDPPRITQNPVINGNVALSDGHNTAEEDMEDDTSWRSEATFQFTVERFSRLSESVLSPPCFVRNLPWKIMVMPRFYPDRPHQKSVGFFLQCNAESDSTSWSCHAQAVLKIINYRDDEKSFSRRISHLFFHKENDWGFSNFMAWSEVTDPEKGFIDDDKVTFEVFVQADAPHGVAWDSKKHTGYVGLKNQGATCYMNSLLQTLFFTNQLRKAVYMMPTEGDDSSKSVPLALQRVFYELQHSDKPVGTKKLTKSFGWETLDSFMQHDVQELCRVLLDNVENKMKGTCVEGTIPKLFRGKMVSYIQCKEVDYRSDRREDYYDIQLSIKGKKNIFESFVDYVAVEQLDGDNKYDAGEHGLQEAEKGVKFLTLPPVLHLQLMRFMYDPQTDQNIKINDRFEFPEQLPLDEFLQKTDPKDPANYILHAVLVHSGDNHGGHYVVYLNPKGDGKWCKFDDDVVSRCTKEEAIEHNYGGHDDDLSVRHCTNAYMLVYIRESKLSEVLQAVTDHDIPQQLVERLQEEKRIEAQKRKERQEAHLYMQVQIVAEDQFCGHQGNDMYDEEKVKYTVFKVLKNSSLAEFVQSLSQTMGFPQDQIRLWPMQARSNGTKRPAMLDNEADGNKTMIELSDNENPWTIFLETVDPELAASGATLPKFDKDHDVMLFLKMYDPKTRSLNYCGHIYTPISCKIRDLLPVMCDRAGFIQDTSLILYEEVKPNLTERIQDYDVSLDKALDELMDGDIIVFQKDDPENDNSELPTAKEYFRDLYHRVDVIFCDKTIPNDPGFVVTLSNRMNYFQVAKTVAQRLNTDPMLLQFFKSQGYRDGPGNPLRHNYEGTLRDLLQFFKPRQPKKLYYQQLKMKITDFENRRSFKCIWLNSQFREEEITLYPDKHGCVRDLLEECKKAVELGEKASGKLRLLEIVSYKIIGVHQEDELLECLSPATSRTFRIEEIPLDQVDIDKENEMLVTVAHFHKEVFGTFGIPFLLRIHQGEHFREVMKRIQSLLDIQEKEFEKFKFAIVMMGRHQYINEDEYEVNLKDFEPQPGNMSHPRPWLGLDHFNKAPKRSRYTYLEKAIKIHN

Row | pIC50 | SMILES
1 | > 6.00 | Cc1cc(Cl)cc(-c2ncnc3cc(Cn4c(=O)ccn(CC(F)(F)F)c4=O)sc23)c1O[C@H]1CCCNCC1 [Example 580, 3-[[4-[2-[(4S)-azepan-4-yl]oxy-5-chloro-3-methyl-phenyl]thieno[3,2-d]pyrimidin-6-yl]methyl]-1-(2,2,2-trifluoroethyl)pyrimidine-2,4-dione; 2,2,2-trifluoroacetic acid]
2 | > 6.00 | Cc1cc(Cl)cc(-c2ccnc3cc(Cn4c(=O)c(C(F)(F)F)cn(C)c4=O)sc23)c1O[C@H]1CCCNC1 [Example 581, 3-[[7-[5-chloro-3-methyl-2-[[(3S)-3-piperidyl]oxy]phenyl]thieno[3,2-b]pyridin-2-yl]methyl]-1-methyl-5-(trifluoromethyl)pyrimidine-2,4-dione; 2,2,2-trifluoroacetic acid]
3 | > 6.00 | Cc1cc(Cl)cc(-c2ncnc3cc(Cn4c(=O)ccn(C)c4=O)sc23)c1O[C@H]1CCCNCC1 [Example 582, 3-[[4-[2-[(4S)-azepan-4-yl]oxy-5-chloro-3-methyl-phenyl]thieno[3,2-d]pyrimidin-6-yl]methyl]-1-methyl-pyrimidine-2,4-dione]
4 | > 6.00 | Cc1cc(Cl)cc(-c2ccnc3cc(Cn4c(=O)ccn(CCC(F)(F)F)c4=O)sc23)c1O[C@H]1CCCNC1 [Example 583, 3-[[7-[5-chloro-3-methyl-2-[[(3S)-3-piperidyl]oxy]phenyl]thieno[3,2-b]pyridin-2-yl]methyl]-1-(3,3,3-trifluoropropyl)pyrimidine-2,4-dione]
5 | > 6.00 | Cc1cc(Cl)cc(-c2ncnc3cc(Cn4c(=O)ccn(CC(F)(F)F)c4=O)sc23)c1O[C@@H]1CCNC[C@@H]1C [Example 584, 3-[[4-[5-chloro-3-methyl-2-[[(3S,4R)-3-methyl-4-piperidyl]oxy]phenyl]thieno[3,2-d]pyrimidin-6-yl]methyl]-1-(2,2,2-trifluoroethyl)pyrimidine-2,4-dione]
6 | > 6.00 | Cc1cc(Cl)cc(-c2ncnc3cc(Cn4c(=O)ccn(CC(F)(F)F)c4=O)sc23)c1O[C@H]1CCNC[C@H]1C [Example 585, 3-[[4-[5-chloro-3-methyl-2-[[(3R,4S)-3-methyl-4-piperidyl]oxy]phenyl]thieno[3,2-d]pyrimidin-6-yl]methyl]-1-(2,2,2-trifluoroethyl)pyrimidine-2,4-dione]

Continued, compound first:

Row | SMILES | pIC50
7 | Cc1cc(Cl)cc(-c2ccnc3cc(Cn4c(=O)ccn(CC(F)(F)F)c4=O)sc23)c1O[C@H]1CNC[C@@H]1C [Example 567, 3-[[7-[5-chloro-3-methyl-2-[(3R,4S)-4-methylpyrrolidin-3-yl]oxy-phenyl]thieno[3,2-b]pyridin-2-yl]methyl]-1-(2,2,2-trifluoroethyl)pyrimidine-2,4-dione] | > 6.00
8 | Cc1cc(Cl)cc(-c2ccnc3cc(Cn4c(=O)ccn(CC(F)(F)F)c4=O)sc23)c1OC1CCNCC1 [Example 568, 3-[[7-[5-chloro-3-methyl-2-(4-piperidyloxy)phenyl]thieno[3,2-b]pyridin-2-yl]methyl]-1-(2,2,2-trifluoroethyl)pyrimidine-2,4-dione] | > 6.00
9 | Cc1cc(Cl)cc(-c2ccnc3cc(Cn4c(=O)ccn(C)c4=O)sc23)c1O[C@H]1CCNC[C@@H]1F [Example 569] | > 6.00
10 | Cc1cc(Cl)cc(-c2ccnc3cc(Cn4c(=O)ccn(C)c4=O)sc23)c1O[C@@H]1CNCC[C@@H]1F [Example 570, 3-[[7-[5-chloro-2-[[(3R,4S)-4-fluoro-3-piperidyl]oxy]-3-methyl-phenyl]thieno[3,2-b]pyridin-2-yl]methyl]-1-methyl-pyrimidine-2,4-dione] | > 6.00
11 | Cc1cc(Cl)cc(-c2ccnc3cc(Cn4c(=O)[nH]cc(C(F)(F)F)c4=O)sc23)c1O[C@H]1CCCNC1 [Example 571, 3-[[7-[5-chloro-3-methyl-2-[[(3S)-3-piperidyl]oxy]phenyl]thieno[3,2-b]pyridin-2-yl]methyl]-5-(trifluoromethyl)-1H-pyrimidine-2,4-dione] | > 6.00
12 | Cc1cc(Cl)cc(-c2ccnc3cc(Cn4c(=O)ccn(C)c4=O)sc23)c1OC1CCNC(C)(C)C1 (centres unmarked) [Example 572, 3-[[7-[5-chloro-2-[(2,2-dimethyl-4-piperidyl)oxy]-3-methyl-phenyl]thieno[3,2-b]pyridin-2-yl]methyl]-1-methyl-pyrimidine-2,4-dione; 2,2,2-trifluoroacetic acid] | > 6.00
13 | Cc1cc([N+](=O)[O-])cc(-c2ccnc3cc(Cn4c(=O)ccn(C)c4=O)sc23)c1O[C@H]1CCCNC1 [Example 573, 1-methyl-3-[[7-[3-methyl-5-nitro-2-[[(3S)-3-piperidyl]oxy]phenyl]thieno[3,2-b]pyridin-2-yl]methyl]pyrimidine-2,4-dione; 2,2,2-trifluoroacetic acid] | > 6.00
14 | Cc1cc(Cl)cc(-c2ccnc3cc(Cn4c(=O)ccn(CC(F)(F)F)c4=O)sc23)c1O[C@H]1CN[C@H](C(F)F)C1 [Example 574, 3-[[7-[5-chloro-2-[(3R,5S)-5-(difluoromethyl)pyrrolidin-3-yl]oxy-3-methyl-phenyl]thieno[3,2-b]pyridin-2-yl]methyl]-1-(2,2,2-trifluoroethyl)pyrimidine-2,4-dione] | > 6.00
15 | Cc1cc(Cl)cc(-c2ccnc3cc(Cn4c(=O)ccn(C(C)C(F)(F)F)c4=O)sc23)c1O[C@H]1CCCNC1 (stereo partly drawn) [Example 575, 3-[[7-[5-chloro-3-methyl-2-[[(3S)-3-piperidyl]oxy]phenyl]thieno[3,2-b]pyridin-2-yl]methyl]-1-(2,2,2-trifluooro-1-methyl-ethyl)pyrimidine-2,4-dione] | > 6.00
16 | Cc1cc(Cl)cc(-c2ccnc3cc(Cn4c(=O)ccn(CC(F)(F)F)c4=O)sc23)c1OCCN [Example 576, 3-[[7-[2-(2-aminoethoxy)-5-chloro-3-methyl-phenyl]thhieno[3,2-b]pyridin-2-yl]methyl]-1-(2,2,2-trifluoroethyl)pyrimidine-2,4-dione; 2,2,2-trifluoroacetic acid] | > 6.00
17 | Cc1cc(Cl)cc(-c2ccnc3cc(Cn4c(=O)ccn(CC(F)(F)F)c4=O)sc23)c1OC1CC2CC1CN2 (centres unmarked) [Example 577, 3-[[7-[2-(2-azabicyclo[2.2.1]heptan-5-yloxy)-5-chloro-3-methyl-phenyl]thieno[3,2-b]pyridin-2-yl]methyl]-1-(2,2,2-trifluoroethyl)pyrimidine-2,4-dione; 2,2,2-trifluoroacetic acid] | > 6.00
18 | Cc1cc(Cl)cc(-c2ncnc3cc(Cn4c(=O)ccn(CC(F)(F)F)c4=O)sc23)c1O[C@H]1CNC[C@@H]1C [Example 578, 3-[[4-[5-chloro-3-methyl-2-[(3R,4S)-4-methylpyrrolidin-3-yl]oxy-phenyl]thieno[3,2-d]pyrimidin-6-yl]methyl]-1-(2,2,2-trifluoroethyl)pyrimidine-2,4-dione] | > 6.00
19 | Cc1cc(Cl)cc(-c2ccnc3cc(CN4C(=O)CCC4=O)sc23)c1O[C@H]1CCCN(CC(=O)O)C1 [Example 579, 2-[(3S)-3-[4-chloro-2-[2-[(2,5-dioxopyrrolidin-1-yl)methyl]thieno[3,2-b]pyridin-7-yl]-6-methyl-phenoxy]-1-piperidyl]acetic acid] | > 6.00
20 | Cc1cc(Cl)cc(-c2ncnc3cc(Cn4c(=O)ccn(CC(F)(F)F)c4=O)sc23)c1O[C@H]1CC[C@](C)(N)C1 [Example 586, 3-[[4-[2-[(1S,3S)-3-amino-3-methyl-cyclopentoxy]-5-chloro-3-methyl-phenyl]thieno[3,2-d]pyrimidin-6-yl]methyl]-1-(2,2,2-trifluoroethyl)pyrimidine-2,4-dione; 2,2,2-trifluoroacetic acid] | > 6.00
